Measurements reported in patent US11633402B2, “RET inhibitor” (CHUGAI SEIYAKU KABUSHIKI KAISHA, priority 2012, dated 2023).
Blank lines part the entries; values can stand above or below the compound they belong to.

Tests used:
[1] = test system: cell lines expressing KIF5B-RET; conditions: J Clin Oncol 30, 2012, suppl; Abstract no: 7510; cited from earlier work
TT cells (RET C634W) = assay: Cell growth inhibitory activity against thyroid medullary cancer cell line TT (CellTiter-Glo); assay type: cell-based; conditions: Homo sapiens, 120 h, read-out: cell growth inhibition IC50 value, TT cells
Method: Cell growth inhibitory activity was evaluated using a thyroid medullary cancer cell line TT (American Type Culture Collection) with a RET kinase active mutation (C634W).
The TT cells were seeded into a 96-well plate at a concentration of 5,000 cells/well in F-12K Nutrient Mixture (Life Technologies Corporation) containing 10% FBS and cultured overnight at 37° C. in the presence of 5% CO2. […] Dimethyl sulfoxide was added as a negative control. After culture at 37° C. for 5 days in the presence of 5% CO2. a cell counting reagent CellTiter-Glo® Luminescent Cell Viability Assay was added thereto and stirred, followed by the measurement of luminescence intensity using a luminescence measurement apparatus Envision. The measurement value in a well supplemented with only a medium was defined as a cell viability of 0%, while the measurement value in a well supplemented with dimethyl sulfoxide was defined as a survival rate of 100%. […] The IC50 value was determined from the obtained values by the logistic regression method.

[2] = test system: LC-2/ad cells (CCDC6-RET fusion gene); assay: Cell growth inhibitory activity against non-small cell lung cancer cell line LC-2/ad (CellTiter-Glo); assay type: cell-based; conditions: Homo sapiens, 120 h, read-out: cell growth inhibition IC50 value, LC-2/ad cells
Method: Cell growth inhibitory activity was evaluated using a non-small cell lung cancer cell line LC-tad (R1KEN, J Thorac Oncol. 2012 December, 7 (12), 1872-6) harboring CCDC6-RET fusion gene.
The LC-2/ad cells were seeded into a 96-well plate at a concentration of 2,000 cells/well in a medium of a 1:1 mixture of RPMI-1640 and Ham containing 15% FBS and 25 mM HEPES and cultured overnight at 37° C. in the presence of 5% CO2. […] Dimethyl sulfoxide was added as a negative control. After culture at 37° C. for 5 days in the presence of 5% CO2, a cell counting reagent CellTiter-Glo® Luminescent Cell Viability Assay was added thereto and stirred, followed by the measurement of luminescence intensity using a luminescence measurement apparatus Envision. The measurement value in a well supplemented with only a medium was defined as a cell viability of 0%, while the measurement value in a well supplemented with dimethyl sulfoxide was defined as a cell viability of 100%. […] The IC50 value was determined from the obtained values by the logistic regression method.

[3] = test system: LC-2/ad-implanted mouse models; assay: Antitumor activity in xenograft mouse model harboring CCDC6-RET fusion gene; assay type: in vivo; conditions: SCID mice, oral once a day 20 mg/kg or 60 mg/kg for 14 days
Source text: LC-2/ad was subcutaneously implanted to SCID mice and randomized after tumor size reached 200 to 350 mm^3. The administration of the compound was started on the day of randomization. The vehicles used for dissolving the compound were 0.02 N HCl, 10% dimethyl sulfoxide. 10% Cremophor EL, 15% PEG400 and 15% HPCD (2-hydroxypropyl-β-cyclodextrin) (indicated by final concentration).

Ba/F3 KIF5B-RET cells = assay: Cell growth inhibitory activity against KIF5B-RET-expressing Ba/F3 cells (CellTiter-Glo); assay type: cell-based; conditions: Mus musculus, BaF3, 48 h; read-out: cell growth inhibition IC50 value, Ba/F3 KIF5B-RET cells
Method: An expression plasmid CS-GS104J-M67 (GeneCopoeia) containing KIF5B-RET variant 1 (gene in which a region from the N-terminus of KIF5B CDS to exon 15 was fused with a region from exon 12 of RET CDS to the C-terminus) (SEQ ID NO: 5) was transfected into mouse lymphocytes Ba/F3 (RIK FN Cell Bank) by electroporation. After transfection, the cells were cultured overnight in an RPMI-1640 medium (Sigma-Aldrich) containing 10% FBS (Bovogen Biologicals) and 1 ng/mL recombinant mouse IL-3 (R&D systems). Then, the culture supernatant was replaced with an RPMl-1640 medium containing 10% LBS. The cells were seeded into a 96-well plate by the limiting dilution method. Approximately 2 weeks later, the expression of phosphorylated RET in cells grown in the absence of IL-3 was detected by Western blotting. […]
The Ba/F3 KIF5B-RET cells were seeded into a 96-well plate at a concentration of 2,500 cells/well in an RPMI-1640 medium containing 10% FBS. […] After culture at 37° C. for 2 days in the presence of 5% CO2, a cell counting reagent CellTiter-Glo® Luminescent Cell Viability Assay (Pronged Corporation) was added thereto and stirred, followed by the measurement of luminescence intensity using a luminescence measurement apparatus Envision (PerkinElmer). […] The IC50 value was determined from the obtained values by the logistic regression method.

[4] = test system: KIF5B-RET-expressing cells; conditions: Nature Medicine 2012, 18, p. 378-381; cited from earlier work
RET = RET (Homo sapiens, UniProt P07949); conditions: high concentration (1,000 nM); Cancer Cell 19(5) 679-690, 2011; cited from earlier work
Sequence of RET (P07949 29-1114): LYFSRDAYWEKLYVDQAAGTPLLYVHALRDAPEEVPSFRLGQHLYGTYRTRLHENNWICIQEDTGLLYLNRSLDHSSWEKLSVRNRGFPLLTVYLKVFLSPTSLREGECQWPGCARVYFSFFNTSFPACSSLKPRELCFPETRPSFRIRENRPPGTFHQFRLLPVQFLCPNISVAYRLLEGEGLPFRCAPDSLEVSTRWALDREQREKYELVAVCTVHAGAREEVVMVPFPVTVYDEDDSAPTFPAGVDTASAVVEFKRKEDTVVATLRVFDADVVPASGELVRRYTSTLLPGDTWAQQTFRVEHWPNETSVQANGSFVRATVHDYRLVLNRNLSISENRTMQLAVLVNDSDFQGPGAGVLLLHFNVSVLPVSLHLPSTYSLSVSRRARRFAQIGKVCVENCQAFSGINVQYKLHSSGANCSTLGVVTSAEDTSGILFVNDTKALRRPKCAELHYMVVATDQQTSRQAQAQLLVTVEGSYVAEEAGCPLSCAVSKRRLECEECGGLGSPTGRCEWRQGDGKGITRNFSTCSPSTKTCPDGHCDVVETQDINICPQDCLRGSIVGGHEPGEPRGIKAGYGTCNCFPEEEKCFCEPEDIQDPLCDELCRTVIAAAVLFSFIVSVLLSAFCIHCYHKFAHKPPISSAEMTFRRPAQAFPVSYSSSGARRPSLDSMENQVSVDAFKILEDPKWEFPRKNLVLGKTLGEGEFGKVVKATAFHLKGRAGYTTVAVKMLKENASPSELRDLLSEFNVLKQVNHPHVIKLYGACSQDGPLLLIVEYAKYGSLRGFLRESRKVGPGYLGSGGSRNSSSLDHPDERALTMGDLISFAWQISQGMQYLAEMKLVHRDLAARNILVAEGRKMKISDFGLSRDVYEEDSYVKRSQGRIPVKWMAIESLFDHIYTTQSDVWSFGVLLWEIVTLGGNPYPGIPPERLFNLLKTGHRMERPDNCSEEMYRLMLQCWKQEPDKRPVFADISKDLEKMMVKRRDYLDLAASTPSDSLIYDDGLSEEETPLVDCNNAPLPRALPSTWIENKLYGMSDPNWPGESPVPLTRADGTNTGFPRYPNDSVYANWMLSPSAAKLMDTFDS

SMILES: COc1cc2nccc(Oc3ccc(NC(=O)C4(C(=O)Nc5ccc(F)cc5)CC4)cc3)c2cc1OC [XL184]
cell growth inhibitory effect against cell lines expressing KIF5B-RET [1]: cell growth inhibitory effect

IC50 (TT cells (RET C634W)): 190 nM
IC50 [2]: 190 nM
IC50 (Ba/F3 KIF5B-RET cells): 86 nM
SMILES: CCc1cc2c(cc1N1CCC(N3CCOCC3)CC1)C(C)(C)c1[nH]c3cc(C#N)ccc3c1C2=O [compound 1, 9-ethyl-6,6-dimethyl-8-(4-morpholin-4-yl-piperidin-1-yl)-11-oxo-6,11-dihydro-5H-benzo[b]carbazole-3-carbonitrile]
antitumor activity (tumor growth) ([3]; LC-2/ad subcutaneous): dose-dependent tumor growth inhibitory effect and tumor regression
body weight loss [3]: significant body weight loss of a mouse was not observed

SMILES: C[C@@H](Oc1cc(-c2cnn(C3CCNCC3)c2)cnc1N)c1c(Cl)ccc(F)c1Cl [crizotinih]
cell growth inhibitory activity against KIF5B-RET-expressing cells [4]: no cell growth inhibitory activity

SMILES: CCc1cc2c(cc1N1CCC(N3CCOCC3)CC1)C(C)(C)c1[nH]c3cc(C#N)ccc3c1C2=O [drawing 3]
kinase inhibition in Ambit Kinase Screening test (RET): inhibits many kinases including RET

SMILES: CNC(=O)c1cc(Oc2ccc(NC(=O)Nc3ccc(Cl)c(C(F)(F)F)c3)cc2)ccn1 [sorafenih]
cell growth inhibitory effect against cell lines expressing KIF5B-RET [1]: cell growth inhibitory effect
